Here are results for two molecules from patent US20260250278A1, “PHENYL-SUBSTITUTED DIHYDRONAPHTHYRIDINE COMPOUNDS, AND PREPARATION AND USE THEREOF” (SUZHONG PHARMACEUTICAL GROUP CO., LTD., priority 2022, published 2026).

A word on the AUC(0-t): it is the area under the concentration-time curve up to a stated or last time point. The low end stands for low exposure, the high end for high exposure. A word on the Cmax: it is the maximum level reached in the sampled fluid or tissue. What is called clearance is a measure of how efficiently the substance is removed, as volume per time. The term half-life denotes the time needed for the level to fall by half in the phase considered. Low readings indicate fast loss, high ones slow loss. For orientation: IC50 means the midpoint of a concentration-inhibition curve. Low values mean higher potency, high ones lower potency.

Data set [1] can be described thus: Pharmacokinetic test of mice (intravenous administration). The settings on record: mouse, plasma; CD1 mice, intravenous 1 mg/kg. The class given is in vivo. As for the experimental part:
This experiment was intended to evaluate a pharmacokinetic behavior of a compound after intravenous injection or intragastric administration in the mice. Intravenous injection administration: a test compound was prepared into 0.2 mg/mL clear solution, a solvent was 10% ethanol/40% polyethylene glycol 400/50% ultrapure water, and after administration, plasma was collected 0.083 hour, 0.25 hour, 0.5 hour, 1 hour, 2 hours, 4 hours, 8 hours, 24 hours and 48 hours later.
(§1) A concentration of the test compound in the plasma was determined by high-performance liquid chromatography-tandem mass spectrometry (LC-MS/MS). Retention time, chromatogram collection and chromatogram integration of compounds and internal standards were treated by software Analyst (Applied Biosystems), and data statistics was treated by software Analyst (Applied Biosystems).
(§2) A plasma concentration was treated by a non-atrioventricular model of Winnonlin™ Version 6.1 (Pharsight, Mountain View, CA) pharmacokinetic software, and pharmacokinetic parameters were calculated by a linear logarithmic trapezoid method.

The nature of data set [2]: Pharmacokinetic test of rats (intravenous and intragastric administration). The class given is in vivo. The settings on record: SD rats. As for the experimental part: This experiment was intended to evaluate a pharmacokinetic behavior of an implementing compound after intravenous injection or intragastric administration in the rats. Intravenous injection administration: a test compound was prepared into 0.2 mg/mL clear solution, a solvent was 10% ethanol, 40% polyethylene glycol 400 and 50% water, and after administration, plasma was collected 0.083 hour, 0.25 hour, 0.5 hour, 1 hour, 2 hours, 4 hours, 8 hours and 24 hours later. Intragastric administration: a test compound was prepared into 1 mg/mL clear solution, a solvent was 10% ethanol/40% polyethylene glycol 400/50% water, and after administration, plasma was collected 0.25 hour, 0.5 hour, 1 hour, 2 hours, 4 hours, 8 hours and 24 hours later.
as §1, §2
Pharmacokinetic parameters of the compounds in the rats with an intravenous injection dose of 1 mg/kg and an intragastric and oral dose of 5 mg/kg were as shown in Table 20 below.

Another data set concerns the target CYP3A4 (Homo sapiens, UniProt P08684). Nature of the data set: biochemical. The class given is in vitro ADME.
The mark [3] stands for this setting: rat, plasma, intragastric and oral administration 5 mg/kg.
The mark [4] stands for this setting: rat, plasma, intravenous 1 mg/kg.

Molecules are shown by their SMILES.

Sequence of CYP3A4 (P08684 2-503 limits assumed): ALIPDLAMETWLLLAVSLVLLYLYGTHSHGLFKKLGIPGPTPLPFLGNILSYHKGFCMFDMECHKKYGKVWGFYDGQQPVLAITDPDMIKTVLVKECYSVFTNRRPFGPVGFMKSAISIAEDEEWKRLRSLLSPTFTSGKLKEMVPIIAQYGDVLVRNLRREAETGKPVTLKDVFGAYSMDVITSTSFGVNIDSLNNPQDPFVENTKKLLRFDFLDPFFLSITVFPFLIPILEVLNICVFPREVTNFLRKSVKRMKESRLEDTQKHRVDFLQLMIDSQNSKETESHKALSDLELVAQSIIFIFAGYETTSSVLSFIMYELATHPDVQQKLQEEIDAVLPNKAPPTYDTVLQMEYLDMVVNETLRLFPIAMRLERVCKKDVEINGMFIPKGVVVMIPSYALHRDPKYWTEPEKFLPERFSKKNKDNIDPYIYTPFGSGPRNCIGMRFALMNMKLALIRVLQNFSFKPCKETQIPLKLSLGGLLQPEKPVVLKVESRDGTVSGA

Turning to `CCOc1nc2ccsc2c2c1[C@H](c1ccc(C#N)cc1OC)C(C(N)=O)=C(C)N2` [Example 38, (S)-6-(4-cyano-2-methoxyphenyl)-5-ethoxy-8-methyl-6,9-dihydrothieno[3,2-h][1,6]naphthyridine-7-formamide], the AUC(0-t) in data set [1] amounted to 2.55 µg·h/mL.
Regarding `CCOc1ncc(C)c2c1[C@H](c1ccc(C#N)cc1OC)C(C(N)=O)=C(C)N2` [Finerenone, reference compound], in data set [1], the AUC(0-t) was 142 µg·h/mL. The molecule also had a F in data set [2] (intragastric and oral administration 5 mg/kg) of 60.3%. In data set [2] (setting [3]), the AUC(0-t) is 307 µg·h/mL and the peak concentration (Cmax) was 23800 ng/mL. Besides, in data set [2] (setting [4]), the AUC(0-t) stood at 91.2 µg·h/mL, the clearance worked out at 0.34 mL/min/kg and the half-life is 9.62 h. Further, at CYP3A4 (CYP3A4-5M IC50, human CYP3A4, CYP3A4-5M), the IC50 came out at 9.98 µM. It took 8.02 µM to reach half-maximal inhibition against CYP3A4 (CYP3A4-5T IC50, human CYP3A4, CYP3A4-5T) (IC50).
